# Results reported in patent US5677419A, “Cyclic vasoactive peptide analogs” (Hoffmann-La Roche Inc., priority 1994, dated 1997).
# Where a SMILES comes first, the peptide text is derived from it. Bridges are numbered along the chain shown (N, C = ends). [ ]: non-standard residue; d: D form. Phe(4-NH2) = Nc1ccc(C[C@H](N)C(=O)O)cc1; Nle = CCCC[C@H](N)C(=O)O
# Assays:
# guinea pigs = assay: In vivo bronchodilator activity by tracheal instillation against histamine challenge; set-up: species or system guinea pig; details: anesthetized male guinea pigs, inhibition of histamine (i.v.)-induced rise in tracheal pressure
# How it was run: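 Urethane-anaesthetised male Hartley guinea pigs (400-600 g) received compound in water by intratracheal instillation, then were paralysed, ventilated and challenged with histamine […] i.v. Tracheal pressure change gave % inhibition (≥3 animals/group); ED50 from log dose-response; duration as time until inhibition fell to 40%.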
# [1] = tested on: guinea pig tracheal smooth muscle; assay: Tracheal relaxant activity of VIP analogs on isolated guinea pig tracheal rings; format: cell-based; details: cumulative concentration response, relaxation as % of maximum response to VIP (10^-6 M=100%), three tissues pooled, linear regression
# How it was run: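 Male guinea pig tracheal rings under 1.5 g resting tension in Krebs at 37° C, 95% O2/5% CO2, isometric tension. Cumulative concentration-response curves; relaxation as % of response to 10^-6 M VIP added at end; three tissues pooled, EC50 by linear regression.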
EC50 [1] [nM],SMILES,"Bronchodilator activity of VIP analogs in guinea pigs, ED50 (guinea pigs) [μg]"
0.45,"CCCC[C@H](NC(=O)[C@H](CCC(N)=O)NC(=O)[C@H](CCCCN)NC(=O)[C@H](CCCNC(=N)N)NC(=O)[C@H](CC(C)C)NC(=O)[C@H](CCCCN)NC(=O)[C@@H](NC(=O)[C@H](Cc1ccc(O)cc1)NC(=O)[C@H](CC(N)=O)NC(=O)[C@H](CCC(=O)O)NC(=O)[C@@H](NC(=O)[C@H](Cc1ccccc1)NC(=O)[C@@H](NC(=O)[C@H](C)NC(=O)[C@H](CC(=O)O)NC(=O)[C@H](CO)NC(=O)[C@H](Cc1c[nH]cn1)NC(C)=O)C(C)C)[C@@H](C)O)[C@@H](C)O)C(=O)N[C@@H](C)C(=O)N[C@@H](C)C(=O)N[C@@H](CCCCN)C(=O)N[C@H]1CCCCNC(=O)C[C@@H](C(=O)N[C@@H](CC(C)C)C(=O)N[C@@H](CCCCN)C(=O)N[C@@H](CCCCN)C(N)=O)NC(=O)[C@H](CC(N)=O)NC(=O)[C@H](CC(C)C)NC(=O)[C@H](Cc2ccc(O)cc2)NC1=O [SEQ ID NO:40, Ac-[Glu^8,Lys^12,Nle^17,Ala^19,Asp^25,Leu^26,Lys^27,28]-VIP cyclo (Lys^21 →Asp^25)] (Ac-HSDAVFTENYTKLRKQ[Nle]AAKKYLNDLKK-NH2; lactam 21-25)",0.022
0.92,"CCCC[C@H](NC(=O)[C@H](CCC(N)=O)NC(=O)[C@H](CCCCN)NC(=O)[C@H](CCCNC(=N)N)NC(=O)[C@H](CC(C)C)NC(=O)[C@H](CCCCN)NC(=O)[C@@H](NC(=O)[C@H](Cc1ccc(O)cc1)NC(=O)[C@H](CC(N)=O)NC(=O)[C@H](CCC(=O)O)NC(=O)[C@@H](NC(=O)[C@H](Cc1ccccc1)NC(=O)[C@@H](NC(=O)[C@H](C)NC(=O)[C@H](CC(=O)O)NC(=O)[C@H](C)NC(=O)[C@H](Cc1c[nH]cn1)NC(C)=O)C(C)C)[C@@H](C)O)[C@@H](C)O)C(=O)N[C@@H](C)C(=O)N[C@@H](C)C(=O)N[C@@H](CCCCN)C(=O)N[C@H]1CCCCNC(=O)C[C@@H](C(=O)N[C@@H](CC(C)C)C(=O)N[C@@H](CCCCN)C(=O)N[C@@H](CCCCN)C(=O)NCC(=O)NCC(=O)N[C@H](C(N)=O)[C@@H](C)O)NC(=O)[C@H](CC(N)=O)NC(=O)[C@H](CC(C)C)NC(=O)[C@H](Cc2ccc(O)cc2)NC1=O [SEQ ID NO:51, Ac-[Ala^2,Glu^8,Lys^12,Nle^17,Ala^19,Asp^25,Leu^26,Lys^27,28,Gly^29,30,Thr^31]-VIP cyclo (Lys^21 →Asp^25)] (Ac-HADAVFTENYTKLRKQ[Nle]AAKKYLNDLKKGGT-NH2; lactam 21-25)",0.1
0.96,"CCCC[C@H](NC(=O)[C@H](CCC(N)=O)NC(=O)[C@H](CCCCN)NC(=O)[C@H](CCCNC(=N)N)NC(=O)[C@H](CC(C)C)NC(=O)[C@H](CCCCN)NC(=O)[C@@H](NC(=O)[C@H](Cc1ccc(N)cc1)NC(=O)[C@H](CC(N)=O)NC(=O)[C@H](CC(=O)O)NC(=O)[C@@H](NC(=O)[C@H](Cc1ccccc1)NC(=O)[C@@H](NC(=O)[C@H](C)NC(=O)[C@H](CC(=O)O)NC(=O)[C@H](CO)NC(=O)[C@H](Cc1c[nH]cn1)NC(C)=O)C(C)C)[C@@H](C)O)[C@@H](C)O)C(=O)N[C@@H](C)C(=O)N[C@@H](C)C(=O)N[C@@H](CCCCN)C(=O)N[C@H]1CCCCNC(=O)C[C@@H](C(=O)N[C@H](C(=O)N[C@@H](CC(C)C)C(=O)N[C@H](C(N)=O)[C@@H](C)O)C(C)C)NC(=O)[C@H](CC(N)=O)NC(=O)[C@H](CC(C)C)NC(=O)[C@H](Cc2ccc(O)cc2)NC1=O [SEQ ID NO:54, Ac-[p-NH2 -Phe^10,Lys^12,Nle^17,Ala^19,Asp^25,Val^26,Thr^28]-VIP cyclo (Lys^21 →Asp^25)] (Ac-HSDAVFTDN[Phe(4-NH2)]TKLRKQ[Nle]AAKKYLNDVLT-NH2; lactam 21-25)",0.35
